The values that follow come from patent publication US20180318383A1, “PEPTIDE HAVING NEURONAL LOSS PREVENTION AND REGENERATION EFFECTS, AND COMPOSITION CONTAINING SAME” (GEMVAX & KAEL CO., LTD., priority 2015, published 2018).

Test [1] can be described thus: Cell-free ROS production (DHBA level by HPLC). To be noted: 20 μM Aβ25-35 and PEP1 0, 1, 10, 50 μM. Here is the method:
To investigate how Aβ25-30 and PEP1 influenced ROS, a DHBA level was measured and observed by a cell-free method. This method was carried out by observing the DHBA level in a tube containing 20 μM Aβ25-30 and each concentration of PEP1 (0, 1, 10 or 50 μM) through HPLC.

Test [2] deals with NSCs. The test is described as follows: NSC proliferation (BrdU and CFU assays). The test is classed as cell-based, rat. To be noted: NSCs, Aβ25-35 alone 0-40 μM, 48 hours; BrdU and CFU. How it is done: NSCs were treated with different concentrations of PEP1 and 20 μM Aβ25-30 for 48 hours. Afterward, NSCs were cultured in bromodeoxyuridine (BrdU)-labeled media for 5 hours and observed using a kit. Cell division was evaluated by measuring absorbance at 370 nm and reference absorbance at 492 nm. All results were normalized based on a cell-free well.
A CFU assay was carried out by the following method. Briefly, 0.25×10^5 NSCs were plated in a 6-well plate, and treated with 20 μM Aβ25-30 and then with PEP1 at 1, 10 or 50 μM for 48 hours. The cells were washed with DPBS, and then the medium was exchanged with a fresh cell culture medium. Fourteen days later, the cells were washed again with DPBS, and stained with 0.5% crystal violet dissolved in methanol for 30 minutes at room temperature. Following staining, the plate was washed with DPBS and then dried. The number of colonies was observed using a stereoscopic microscope, and among these colonies, those smaller than 2 mm or faintly stained were removed.

Test [3] concerns NSCs. Briefly: Cell viability of NSCs (CCK-8, MTT, LDH). In kind it is cell-based, rat. The settings on record: NSCs, Aβ25-35 alone 0, 2.5, 5, 10, 20, 40 μM, 48 hours; CCK-8, MTT, LDH. How it is done: NSCs were isolated from the brain of a rat embryo, cultured and developed. The NSC culture was performed in the same manner as to be described below. Briefly describing, a rat embryo was obtained on day 13 of the embryonic period, and the brain was quickly removed and placed in a petri dish containing cold phosphate-buffered physiological saline (Hank's balanced salt solution; HBSS).
Single cells were isolated from the cerebral cortex, the lateral ganglion eminence, and the embryonic midbrain. These cells were put into a dish pre-treated with L-ornithine and fibronectin, containing calcium and magnesium-free phosphate-buffered physiological saline (PBS) at a density of 20,000 cells/cm^2. In addition, the cells were cultured in an N2 medium (DMEM F/12, […] insulin, 100 mg/L transferrin, 30 nM selenite, […], 20 nM progesterone, 0.2 mM ascorbic acid, […], 8.6 mM D(+) glucose, and […]). The culture was maintained in humidified and 5% CO2 conditions for 4 to 6 days at 37° C.
NSCs were divided into 6 samples, and each sample was treated with […] Aβ25-30 oligomers for 48 hours to identify a suitable concentration. […] Briefly, Aβ25-30 was dissolved in hexafluoroisopropanol to reach a concentration of 1 mM. In addition, the prepared solution was dispensed using a sterilized ultramicrocentrifuge tube. […]
To identify the PEP1 effect in NSCs, PEP1 was treated at various concentrations of 0, 1, 10, 50, 100, and 200 μM for 48 hours. […] The plate was gently washed with PBS several times, and cell viability was measured using a cell counting kit-8 (CCK-8), MTT and lactate dehydrogenase (LDH).
CCK-8 was used as a method for counting living cells by bonding 2-[2-methoxy-4-nitrophenyl]-3-[4-nitrophenyl]-5-[2,4-disulfophenyl]-2H-tetrazolium, monosodium salt (WST-8) with 1-methoxyphenazinium methylsulfate (PMS). […] Cell viability was evaluated by measuring absorbance at 450 nm. […] Cell viability was evaluated by measuring absorbance at 490 nm and reference absorbance at 690 nm. […]

Another test has as its system PI3K pathway. The test is described as follows: NSC survival after PI3K inhibitor LY294002 pre-treatment. In kind it is cell-based, rat. The settings on record: 10 μM LY294002 pre-treatment, then 20 μM Aβ25-35 and 10 μM PEP1 for 48 hours. Here is the method: To identify the role of the PI3K/AKT signaling system in the PEP1 mechanism, NSCs were treated with a PI3K inhibitor LY294002 for 1 hour before treatment of 50 μM PEP1 and 20 μM Aβ25-30. NSCs were divided into four groups as follows: control group (Group 1), group treated with 20 μM Aβ25-35 for 48 hours (Group 2), group treated with 20 μM Aβ25-35, as well as 50 μM PEP1, for 48 hours (Group 3), and group treated with 10 μM LY294002 and 20 μM Aβ25-35, as well as 50 μM PEP1, for 48 hours (Group 4). To investigate a PEP1 effect on nerve protection via a PI3K pathway induced by Aβ25-35 toxicity, NSCs were divided into four groups: control group (Group 1), group treated with 20 μM Aβ25-35 for 48 hours (Group 2), group treated with 20 μM Aβ25-35 and 10 μM PEP1 for 48 hours (Group 3), and group treated with 10 μM LY294002 for […], and then treated with 20 μM Aβ25-35 10 μM PEP1 for 48 hours (Group 4).

Where no end group is shown, it is not given here.

For the compound “Aβ25-35: β-Amyloid 25-35 oligomers used to induce neurotoxicity in NSCs (GSNKGAIIGLM; also: used as oligomers; UniProt P05067 696-706, looked up, fragment) [reference compound]”, the “ROS production under a cell-free condition” value in test [1] is recorded as “did not exhibit a significant influence”. The proliferation result with NSCs [2] is “significantly reduced in a concentration-dependent method”. In addition, the cell survival ability entry in the test with NSCs [3] is “significantly reduced in a concentration-dependent method”.
On to `O=c1cc(N2CCOCC2)oc2c(-c3ccccc3)cccc12` [LY294002], for which the “survival ability of NSCs degraded, Group 4 compared to Group 3” value in the test with PI3K pathway is given as “approximately 16%”.
